Here are results for six compounds from US20080221103A1, “New heterocyclic compounds” (ORCHID RESEARCH LABORATORIES LTD., priority 2007, published 2008).

One experiment concerns the target T1, 5-LOX (Homo sapiens, UniProt P09917).
T1 construct: Source: Human PBML cells Substrate: Arachidonic acid; endogenous in cells; host or cells: Human PBML cells (peripheral blood mononuclear leukocytes)
T1 sequence (P09917 1-674): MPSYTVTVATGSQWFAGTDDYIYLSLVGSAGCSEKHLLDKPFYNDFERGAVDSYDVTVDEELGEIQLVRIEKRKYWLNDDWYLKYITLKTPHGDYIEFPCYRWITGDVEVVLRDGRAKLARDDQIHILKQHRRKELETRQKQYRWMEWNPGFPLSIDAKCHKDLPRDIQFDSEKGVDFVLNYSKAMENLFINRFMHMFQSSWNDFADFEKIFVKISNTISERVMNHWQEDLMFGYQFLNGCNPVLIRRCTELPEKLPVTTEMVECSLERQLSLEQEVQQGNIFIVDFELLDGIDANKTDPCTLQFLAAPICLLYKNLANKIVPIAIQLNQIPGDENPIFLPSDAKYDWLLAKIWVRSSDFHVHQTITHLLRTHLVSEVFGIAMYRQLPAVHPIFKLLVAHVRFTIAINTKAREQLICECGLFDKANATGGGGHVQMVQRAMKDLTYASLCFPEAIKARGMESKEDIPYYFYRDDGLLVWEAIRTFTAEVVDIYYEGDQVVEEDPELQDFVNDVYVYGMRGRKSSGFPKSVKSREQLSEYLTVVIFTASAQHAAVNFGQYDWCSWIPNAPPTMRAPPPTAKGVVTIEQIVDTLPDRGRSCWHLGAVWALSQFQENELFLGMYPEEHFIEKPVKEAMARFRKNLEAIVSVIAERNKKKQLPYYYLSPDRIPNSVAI
The experiment can be described thus: 5-LOX activity. The format is biochemical. As to conditions: source human PBML cells, LTB4 EIA. The protocol:
The assay method involves the following conditions. Source: Human PBML cells Substrate: Arachidonic acid
Pre-incubation Time/Temp.: 15 min at 37° C.
Incubation Time/Temp.: 15 min at 37° C.
Incubation buffer: HBSS (Hank's balanced salt solution) Quantitation method: EIA quantitation of LTB4 Significance criteria: >50% of maximum stimulation or inhibition The results are tabulated as shown in the table V.

In experiment [1] the test system is TNF-α. Nature of the experiment: In vitro measurement of TNF-α production in LPS-stimulated human PBMC (ELISA). The format is cell-based. As to conditions: LPS 1 μg/ml, 18 h; for inhibition at 1 µM: read-out: TNF-α Inhibition (%) at Conc. (1 μM); for inhibition at 10 µM: read-out: TNF-α Inhibition (%) at Conc. (10 μM). The protocol: This assay determines the effect of test compounds on the production of TNF-α in human Peripheral Blood Mononuclear Cells (PBMC). Compounds were tested for their ability to inhibit the activity of TNF-α in human PBMC. PBMC were isolated from blood (of healthy volunteers) using BD Vacutainer CPT™ (Cell preparation tube, BD Bio Science) and suspended in RPMI medium (Physiol. Res. 52: 593-598, 2003). The test compounds were pre-incubated with PBMC (0.5 million/incubation well) for 15 min. at 37° C. and then stimulated with Lipopolysaccharide (Escherichia coli: B4; 1 μg/ml) for 18 h at 37° C. in 5% CO2. The levels of TNF-α in the cell culture medium were estimated using enzyme-linked immunosorbent assay performed in a 96 well format as per the procedure of the manufacturer (Cayman Chemical, Ann Arbor, USA).
(In general: In an ELISA, binding on a coated surface is turned into a signal by an enzyme label.)

Another experiment relates to DSS Induced colitis. The experiment can be described thus: IBD-DSS model (DSS induced colitis test). The format is in vivo. As to conditions: dosed Day 1 to 6, BALB/c mice, DSS 2%. The procedure:
DSS Induced colitis test was performed as described by Axelsson et al., 1998. Male BALB/c mice were selected in the age of 7-8 weeks for the study. Colitis in mice was induced by providing DSS (2%) in the drinking water from day 1 to 6. Mice were dosed from Day 1 to 6 with test compound suspended in vehicle containing 0.25% carboxymethylcellulose and 0.5% Tween 80. The control animals received vehicle alone. Body weight and disease activity index was recorded daily during the experiment. After 6 days of treatment, animals were sacrificed; colon weight and colon length was recorded.

The target in the next experiment is T2, Thromboxane synthase (Homo sapiens, UniProt P24557).
T2 construct: Source: Human Platelets; from tissue; host or cells: Human platelets
T2 sequence (P24557 1-533): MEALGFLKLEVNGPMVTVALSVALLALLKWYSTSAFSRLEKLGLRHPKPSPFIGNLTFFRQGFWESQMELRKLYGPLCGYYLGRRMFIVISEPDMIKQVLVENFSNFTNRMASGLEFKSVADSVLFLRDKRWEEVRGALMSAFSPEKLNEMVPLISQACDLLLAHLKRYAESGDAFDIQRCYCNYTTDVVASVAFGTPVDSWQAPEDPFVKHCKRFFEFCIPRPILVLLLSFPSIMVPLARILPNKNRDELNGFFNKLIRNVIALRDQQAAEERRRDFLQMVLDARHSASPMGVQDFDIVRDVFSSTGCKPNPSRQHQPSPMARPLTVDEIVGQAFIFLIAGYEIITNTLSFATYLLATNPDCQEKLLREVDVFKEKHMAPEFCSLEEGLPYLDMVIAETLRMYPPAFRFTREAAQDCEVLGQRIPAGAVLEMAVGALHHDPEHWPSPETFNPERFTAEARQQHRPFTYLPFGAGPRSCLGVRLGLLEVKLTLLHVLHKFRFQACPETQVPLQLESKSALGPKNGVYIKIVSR
The experiment can be described thus: Thromboxane synthase activity. The format is biochemical. The conditions noted are these: source human platelets, TxB2 EIA. The procedure:
The assay method involves the following conditions.
Pre-incubation Time/Temp.: 15 min at 25° C.
Incubation Time/Temp.: 3 min at 25° C.
Incubation buffer: 10 mM Tris-HCl, pH 7.4 Quantitation method: EIA quantitation of TxB2 Significance criteria: >50% of maximum stimulation or inhibition The results are tabulated as shown in the table VI.

The subject of a further experiment is PDE4. Nature of the experiment: PDE4 activity. The format is biochemical. As to conditions: source human U937 cells. The protocol: PDE4 inhibition was measured by following a literature assay procedure (Cortizo J et al., J. Pharmacol., 1993, 108, 562-568). The assay method involves the following conditions.
Pre-Incubation Time/Temperature: 15 min at 25° C.
Incubation Time/Temperature. 20 min at 25° C.
Incubation buffer: 50 mM Tris-HCl, pH 7.5, 5 mM MgCl2 Quantitation method: Quantitation of [^3H]

Experiment [2] has as its system TNF-α. The experiment can be described thus: LPS induced sepsis for measurement of TNF-α inhibition in mice. The conditions noted are these: Mus musculus, 1.5 h; oral dosing; serum TNF-α 90 min after LPS i.p. The format is in vivo. The procedure: The LPS induced sepsis model in mice was performed as described by Les sekut et al (J Lab Clin Med, 1994, 124, 813-820). Female Swiss albino mice were selected and the body weights were equivalent within each group. The mice were fasted for 20 h with free access to water. The mice were dosed orally with the test compound suspended in vehicle containing 0.5% Tween 80 in 0.25% Carboxy-methylcellulose sodium salt. The control mice were administered the vehicle alone. After 30 minutes of oral dosing, mice were injected with 500 μg of Lipopolysaccharide (Escherichia coli, LPS: B4 from Siga) in phosphate buffer saline solution into the intraperitoneal cavity of the mice. After 90 min of LPS administration mice were bled via retro-orbital sinus puncture. Blood samples were stored overnight at 4° C. Serum samples were collected by centrifuging the samples at 4000 rpm for 15 minutes at 4° C. Immediately the serum samples were analysed for TNF-α levels using commercially available mouse TNF-α ELISA kit (Amersham Biosciences) and assay was performed by the manufacturer instruction.

The next experiment deals with NCIH460, HCT116, U251. The experiment can be described thus: Anti-cancer screen (MTT), mean over three cell lines. The format is cell-based. The conditions noted are these: mean of NCIH460, HCT116, U251. The protocol: (§1) Experimental drugs are screened for anti-cancer activity in three cell lines for their GI50, TGI and LC50 values (using 5 concentrations for each compound). The cell lines are maintained in DMEM containing 10% fetal bovine serum. 96 well microtiter plates are inoculated with cells in 100 μL for 24 hours at 37° C., 5% CO2, 95% air and 100% relative humidity. 5000 HCT116 cells/well, 5000 NCIH460 cells/well, 10000 U251 cells/well and 5000 MDAMB231 cells/well are plated. A separate plate with these cell lines is also inoculated to determine cell viability before the addition of the compounds (T0).
(§2) Following 24-h incubation, experimental drugs are added to the 96 well plates. […]
(§3) Cells are incubated with compounds for 48 h followed by the addition of 10 μL 3-(4,5-Dimethyl-2-thiazolyl)-2,5-diphenyl-2H-tetrazolium (MTT) solution per well and a subsequent incubation at 37° C., 5% CO2, 95% air and 100% relative humidity, protected from light. […] Plates are agitated to ensure solution of the formazan crystals in DMSO and absorbance read at 570 nm.
(§4) Percent growth is calculated for each compound's concentration relative to the control and zero measurement wells (T0; viability right before compound addition). […]

For another experiment, the system named is HCT116 cells. The experiment can be described thus: Anti-cancer screen (MTT), HCT116. As to conditions: Homo sapiens, HCT-116, 48 h, concentrations tested 0.01-100 μM. The format is cell-based. The protocol:
as §1, §2, §3, §4

A further experiment deals with U251 cells. The experiment can be described thus: Anti-cancer screen (MTT), U251. The format is cell-based. The conditions noted are these: Homo sapiens, U-251, 48 h, concentrations tested 0.01-100 μM. The procedure:
as §1, §2, §3, §4

For the next experiment, the system named is NCIH460 cells. The experiment can be described thus: Anti-cancer screen (MTT), NCIH460. As to conditions: Homo sapiens, NCI-H460, 48 h, concentrations tested 0.01-100 μM. The format is cell-based. The protocol: as §1, §2, §3, §4

In general, inhibition refers to how much of the control response was suppressed. A word on the ED50: it is the dose at which the effect has come halfway, by size or by number of responders. Read a low ED50 as greater potency. For orientation: GI50 means the concentration giving 50% growth inhibition. Lower therefore signals more potent growth inhibition.

Turning to `CSc1nc(-c2ccccc2)nc(NN2C(=O)C=C(C)C2=O)c1C#N` [Example 1, 4-(3-Methyl-2,5-dioxo-2,5-dihydro-1H-pyrrol-1-ylamino)-6-(methylthio)-2-phenylpyrimidine-5-carbonitrile], the results for the inhibition at 10 µM against 5-LOX, in the experiment with TNF-α [1] and at Thromboxane synthase were 94%, 92.7% and 96%, respectively. In addition, the inhibition at 1 µM in the experiment with TNF-α [1] worked out at 57.3%. The “IBD-DSS Model % Inhibition of DAI at 50 mg/kg” value with DSS Induced colitis was found to be 47%. The “PDE4 inhibition at 10 μM (%)” value in the experiment on PDE4 amounted to 61%. The compound further displayed a median effective dose (ED50) in the experiment with TNF-α [2] of 3.1 mg/kg.

With `COc1ccc(-c2nc(NN3C(=O)C=C(C)C3=O)c(C#N)c(SC)n2)cc1` [Example 2, 4-(Thiomethyl)-2-(4-methoxyphenyl)-6-(3-methyl-2,5-dioxo-2,5-dihydro-1H-pyrrol-1-ylamino)pyrimidine-5-carbonitrile], in the experiment on TNF-α [1], the inhibition at 1 µM came to 50.9% and the inhibition at 10 µM turned out to be 95.4%.

Consider `COc1ccc(-c2nc(NN3C(=O)C=C(C)C3=O)c(C#N)c(SC)n2)cc1S(N)(=O)=O` [Example 6, 5-(5-Cyano-4-(3-methyl-2,5-dioxo-2,5-dihydro-1H-pyrrol-1-ylamino)-6-(methylthio)pyrimidin-2-yl)-2-methoxybenzenesulfonamide], for which the GI50 amounted to 5.3 µM in the experiment on NCIH460, HCT116, U251; 4.9 µM in the experiment with HCT116 cells; 0.92 µM with U251 cells; 10.1 µM in the experiment with NCIH460 cells. Further, in the experiment with TNF-α [1], the inhibition at 10 µM was 88%.

Take `CSc1nc(-c2cccc(S(N)(=O)=O)c2)nc(NN2C(=O)C=C(C)C2=O)c1C#N` [Example 10, 3-(5-Cyano-4-(3-methyl-2,5-dioxo-2,5-dihydro-1H-pyrrol-1-ylamino)-6-(methylthio)pyrimidin-2-yl)benzenesulfonamide]: in the experiment with TNF-α [1], the inhibition at 1 µM was found to be 20% and the inhibition at 10 µM was determined as 9.7%.

For the compound `CSc1nc(-c2cccs2)nc(NN)c1C#N` [Example 13, 4-Hydrazinyl-6-(methylthio)-2-(thiophen-2-yl)pyrimidine-5-carbonitrile], in the experiment on TNF-α [1], the inhibition at 1 µM was 13% and the inhibition at 10 µM was found to be 71%.

With `COc1ccc(-c2nc(SC)c(C#N)c(N3CCN(c4ccccn4)CC3)n2)cc1` [Example 39, 2-(4-Methoxyphenyl)-4-(methylthio)-6-(4-(pyridin-2-yl)piperazin-1-yl)pyrimidine-5-carbonitrile], in the experiment on TNF-α [1], the inhibition at 1 µM stood at 19.2% and the inhibition at 10 µM turned out to be 34%.
